Assay results: ChEMBL document CHEMBL1909046, “DrugMatrix in vitro pharmacology data”

What was measured:
[1] = biological target: 5-hydroxytryptamine receptor 4 (Cavia porcellus, UniProt O70528); type: cell membranes, Dunkin-Hartley, Striatum, Membrane; also: in other assays of this panel Not Active means under 50% inhibition at 10 µM
[2] = biological target: 5-hydroxytryptamine receptor 6 (Homo sapiens, UniProt P50406); type: cell membranes, HeLa, Membrane; settings: hela; also: in other assays of this panel Not Active means under 50% inhibition at 10 µM
[3] = biological target: Sigma non-opioid intracellular receptor 1 (Homo sapiens, UniProt Q99720); test: DRUGMATRIX: Sigma1 radioligand binding (ligand: [3H] Haloperidol); type: cell membranes, Jurkat, Membrane; settings: jurkat; Not Active = under 50% inhibition at 10 µM
[4] = DRUGMATRIX: Sigma2 radioligand binding (ligand: [3H] Ifenprodil); type: cell membranes, Rattus norvegicus, Wistar, Brain, Membrane; settings: Not Active = under 50% inhibition at 10 µM
[5] = biological target: T1, Angiotensin-converting enzyme (Oryctolagus cuniculus, UniProt P12822); type: tissue-based, Lung;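 also: enzymatic inhibition of angiotensin-converting enzyme measured with FAPGG as the substrate; in other assays of this panel Not Active means under 50% inhibition at 10 µM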
T1 sequence (P12822 whole entry): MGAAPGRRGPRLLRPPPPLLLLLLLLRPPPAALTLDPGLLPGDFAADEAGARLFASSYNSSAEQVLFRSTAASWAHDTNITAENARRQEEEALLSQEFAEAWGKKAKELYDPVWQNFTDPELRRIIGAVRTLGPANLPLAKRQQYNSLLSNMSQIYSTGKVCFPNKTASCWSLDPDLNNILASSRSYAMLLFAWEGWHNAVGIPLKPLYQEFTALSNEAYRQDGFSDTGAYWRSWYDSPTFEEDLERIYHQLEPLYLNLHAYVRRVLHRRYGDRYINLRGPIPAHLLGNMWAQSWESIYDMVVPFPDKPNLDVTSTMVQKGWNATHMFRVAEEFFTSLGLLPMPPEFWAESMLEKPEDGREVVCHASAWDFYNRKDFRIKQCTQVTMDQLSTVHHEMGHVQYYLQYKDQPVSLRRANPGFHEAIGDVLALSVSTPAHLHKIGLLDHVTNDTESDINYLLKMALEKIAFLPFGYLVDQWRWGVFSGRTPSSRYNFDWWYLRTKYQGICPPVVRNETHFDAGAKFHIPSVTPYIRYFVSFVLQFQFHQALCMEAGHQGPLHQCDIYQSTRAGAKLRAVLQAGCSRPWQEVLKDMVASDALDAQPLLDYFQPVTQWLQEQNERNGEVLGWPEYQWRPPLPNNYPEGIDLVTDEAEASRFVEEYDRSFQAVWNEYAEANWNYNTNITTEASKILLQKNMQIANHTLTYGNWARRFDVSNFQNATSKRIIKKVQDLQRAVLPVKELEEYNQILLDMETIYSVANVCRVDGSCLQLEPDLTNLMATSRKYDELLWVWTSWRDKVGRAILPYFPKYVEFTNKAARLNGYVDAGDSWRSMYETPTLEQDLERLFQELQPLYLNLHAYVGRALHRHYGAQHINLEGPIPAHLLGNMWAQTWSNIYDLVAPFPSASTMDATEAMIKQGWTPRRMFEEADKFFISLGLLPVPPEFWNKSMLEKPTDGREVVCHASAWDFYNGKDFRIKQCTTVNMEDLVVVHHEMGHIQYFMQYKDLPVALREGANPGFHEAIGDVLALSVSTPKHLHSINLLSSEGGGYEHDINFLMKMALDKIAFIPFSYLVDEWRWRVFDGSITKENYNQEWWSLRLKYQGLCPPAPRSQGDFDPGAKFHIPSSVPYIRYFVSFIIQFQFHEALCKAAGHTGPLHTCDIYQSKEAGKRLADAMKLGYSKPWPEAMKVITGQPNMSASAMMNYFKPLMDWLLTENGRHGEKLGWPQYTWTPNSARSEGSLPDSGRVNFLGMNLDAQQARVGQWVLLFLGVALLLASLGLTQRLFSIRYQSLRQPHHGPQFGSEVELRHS

[6] = biological target: Cytochrome P450 2C19 (Homo sapiens, UniProt P33261); settings: bti-tn-5b1-4; also: in other assays of this panel Not Active means under 50% inhibition at 10 µM
Sequence of Cytochrome P450 2C19 (P33261 whole entry): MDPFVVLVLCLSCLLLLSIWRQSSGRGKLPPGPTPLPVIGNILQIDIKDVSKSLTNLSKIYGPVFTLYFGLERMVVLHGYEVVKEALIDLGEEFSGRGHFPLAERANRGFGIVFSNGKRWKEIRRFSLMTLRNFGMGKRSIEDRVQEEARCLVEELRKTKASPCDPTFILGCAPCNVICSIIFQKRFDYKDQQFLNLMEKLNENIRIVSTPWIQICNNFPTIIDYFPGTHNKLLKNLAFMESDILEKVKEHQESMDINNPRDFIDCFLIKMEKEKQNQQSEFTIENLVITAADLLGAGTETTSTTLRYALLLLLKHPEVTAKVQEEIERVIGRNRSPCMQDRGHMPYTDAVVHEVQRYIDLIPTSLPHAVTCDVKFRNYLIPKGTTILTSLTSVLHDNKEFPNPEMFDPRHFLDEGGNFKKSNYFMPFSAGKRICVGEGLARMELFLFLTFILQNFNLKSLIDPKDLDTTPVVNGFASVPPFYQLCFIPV

Sequence of 5-hydroxytryptamine receptor 6 (P50406 whole entry): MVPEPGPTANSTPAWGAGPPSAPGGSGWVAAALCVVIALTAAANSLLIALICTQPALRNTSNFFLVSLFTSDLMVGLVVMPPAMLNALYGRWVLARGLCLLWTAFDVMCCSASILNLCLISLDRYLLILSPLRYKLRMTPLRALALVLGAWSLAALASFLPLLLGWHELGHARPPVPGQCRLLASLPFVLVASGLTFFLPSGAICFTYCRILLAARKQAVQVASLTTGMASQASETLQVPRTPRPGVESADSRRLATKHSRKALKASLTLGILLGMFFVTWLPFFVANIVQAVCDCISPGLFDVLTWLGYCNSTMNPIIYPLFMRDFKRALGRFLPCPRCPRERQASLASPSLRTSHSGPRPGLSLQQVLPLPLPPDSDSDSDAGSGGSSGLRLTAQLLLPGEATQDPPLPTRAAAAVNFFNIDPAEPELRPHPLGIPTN
Sequence of Sigma non-opioid intracellular receptor 1 (Q99720 whole entry): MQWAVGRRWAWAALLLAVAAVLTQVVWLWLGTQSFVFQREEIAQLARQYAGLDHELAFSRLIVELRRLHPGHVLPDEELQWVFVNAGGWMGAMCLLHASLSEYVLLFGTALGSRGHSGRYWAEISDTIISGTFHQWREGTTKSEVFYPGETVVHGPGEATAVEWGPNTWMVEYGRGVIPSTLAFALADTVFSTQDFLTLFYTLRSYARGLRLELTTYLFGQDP
Sequence of 5-hydroxytryptamine receptor 4 (O70528 whole entry): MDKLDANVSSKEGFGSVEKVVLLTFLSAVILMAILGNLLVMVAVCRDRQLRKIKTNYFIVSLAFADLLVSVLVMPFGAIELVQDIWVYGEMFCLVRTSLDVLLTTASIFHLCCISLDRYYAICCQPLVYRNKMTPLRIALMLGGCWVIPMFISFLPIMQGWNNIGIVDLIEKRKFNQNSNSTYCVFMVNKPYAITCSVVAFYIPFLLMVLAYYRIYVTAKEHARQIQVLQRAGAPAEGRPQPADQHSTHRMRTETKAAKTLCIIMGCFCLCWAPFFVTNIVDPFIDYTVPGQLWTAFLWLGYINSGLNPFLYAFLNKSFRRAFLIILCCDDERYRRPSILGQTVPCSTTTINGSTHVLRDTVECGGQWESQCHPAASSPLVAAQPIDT

COBALT(II) ACETYLACETONATE
Not Active: IC50 [1] | Ki [1] | IC50 [2] | Ki [2] | IC50 [3] | Ki [3] | IC50 [4] | Ki [4] | IC50 [5] | Ki [5] | IC50 [6] | Ki [6]

INSULIN HUMAN
Not Active: IC50 [1] | Ki [1] | IC50 [2] | Ki [2] | IC50 [3] | Ki [3] | IC50 [4] | Ki [4] | IC50 [5] | Ki [5] | IC50 [6] | Ki [6]

POLYVINYL ALCOHOL
Not Active: IC50 [1] | Ki [1] | IC50 [2] | Ki [2] | IC50 [3] | Ki [3] | IC50 [4] | Ki [4] | IC50 [5] | Ki [5] | IC50 [6] | Ki [6]
